The numbers were not newly measured in US10995093B2, “Synthesis of 2′-fluoro-6′-methylene-carbocyclic adenosine (FMCA) and 2′-fluoro-6′methylene-carbocyclic guanosine (FMCG)” (UNIVERSITY OF GEORGIA RESEARCH FOUNDATION, INC., priority 2016, dated 2021), which cites them from elsewhere.

The subject of data set [1] is wild-type HBV.
In data set [2] the test system is lamivudine, adefovir, and double lamivudine/entecavir-resistant mutants. To be noted: drug-resistant mutants.
For data set [3], the system named is lamivudine/entecavir-resistant clone (L180M+M204V+S202G).
The conditions of data set [4]: no significant toxicity observed up to 100 μM.

Entries after “also recorded” stand apart in the source; their conditions may differ.

As for `C=C1[C@@H](n2cnc3c(N)ncnc32)[C@@H](F)[C@H](O)[C@H]1CO` [FMCA, (1R,3R,5R)-3-(6-amino-9H-purin-9-yl)-2-fluoro-5-(hydroxymethyl)-4-methylenecyclopentanol], the “activity against wild-type HBV” value in data set [1] is “significant activity; also recorded: potential antiviral activity”. In addition, the “activity against lamivudine, adefovir, and double lamivudine/entecavir-resistant mutants” value in data set [2] was “significant activity”. Besides, the “antiviral activity against lamivudine/entecavir-resistant clone” value in data set [3] is “potential antiviral activity”. Besides, in data set [4], the “mitochondrial and cellular toxicity, concentration up to which no significant toxicity was observed” value was greater than 100 µM.
